Test results taken from ChEMBL document CHEMBL4138146, “A Schmidt rearrangement-mediated synthesis of novel tetrahydro-benzo[1,4]diazepin-5-ones as potential anticancer and antiprotozoal agents” (Eur J Med Chem, 2017).

Assays:
Format in all cases: functional
[1] = system: A549; test: Growth inhibition of human A549/ATCC cells assessed as cell growth at 10 uM incubated for 48 hrs by sulforhodamine B assay relative to control; settings: A549, 48 h, read-out: Activity
[2] = system: SK-MEL-28; test: Growth inhibition of human SK-MEL-28 cells assessed as cell growth at 10 uM incubated for 48 hrs by sulforhodamine B assay relative to control; settings: SK-MEL-28, 48 h, read-out: Activity
[3] = system: HT-29; test: Growth inhibition of human HT-29 cells assessed as cell growth at 10 uM incubated for 48 hrs by sulforhodamine B assay relative to control; settings: HT-29, 48 h, read-out: Activity
[4] = system: SF-539; test: Growth inhibition of human SF539 cells assessed as cell growth at 10 uM incubated for 48 hrs by sulforhodamine B assay relative to control; settings: SF-539, 48 h, read-out: Activity
[5] = system: SW-620; test: Growth inhibition of human SW620 cells assessed as cell growth at 10 uM incubated for 48 hrs by sulforhodamine B assay relative to control; settings: SW-620, 48 h, read-out: Activity
[6] = system: PC-3; test: Growth inhibition of human PC3 cells assessed as cell growth at 10 uM incubated for 48 hrs by sulforhodamine B assay relative to control; settings: PC-3, 48 h, read-out: Activity
[7] = system: NCI/ADR-RES; test: Growth inhibition of human NCI/ADR-RES cells assessed as cell growth at 10 uM incubated for 48 hrs by sulforhodamine B assay relative to control; settings: read-out: Activity
[8] = system: OVCAR-3; test: Growth inhibition of human OVCAR3 cells assessed as cell growth at 10 uM incubated for 48 hrs by sulforhodamine B assay relative to control; settings: OVCAR-3, 48 h, read-out: Activity
[9] = system: Malme-3M; test: Growth inhibition of human MALME-3M cells assessed as cell growth at 10 uM incubated for 48 hrs by sulforhodamine B assay relative to control; settings: read-out: Activity
[10] = system: SK-MEL-2; test: Growth inhibition of human SK-MEL-2 cells assessed as cell growth at 10 uM incubated for 48 hrs by sulforhodamine B assay relative to control; settings: SK-MEL-2, 48 h, read-out: Activity
[11] = system: NCI-H522; test: Growth inhibition of human NCI-H522 cells assessed as cell growth at 10 uM incubated for 48 hrs by sulforhodamine B assay relative to control; settings: NCI-H522, 48 h, read-out: Activity
[12] = system: SK-MEL-5; test: Growth inhibition of human SK-MEL-5 cells assessed as cell growth at 10 uM incubated for 48 hrs by sulforhodamine B assay relative to control; settings: SK-MEL-5, 48 h, read-out: Activity
[13] = system: 786-0; test: Growth inhibition of human 786-0 cells assessed as cell growth at 10 uM incubated for 48 hrs by sulforhodamine B assay relative to control; settings: 786-0, 48 h, read-out: Activity
[14] = system: LOX IMVI; test: Growth inhibition of human LOXIMVI cells assessed as cell growth at 10 uM incubated for 48 hrs by sulforhodamine B assay relative to control; settings: read-out: Activity
[15] = system: MDA-MB-231; test: Growth inhibition of human MDA-MB-231 cells assessed as cell growth at 10 uM incubated for 48 hrs by sulforhodamine B assay relative to control; settings: MDA-MB-231, 48 h, read-out: Activity
[16] = system: NCI-H460; test: Growth inhibition of human NCI-H460 cells assessed as cell growth at 10 uM incubated for 48 hrs by sulforhodamine B assay relative to control; settings: NCI-H460, 48 h, read-out: Activity
[17] = system: A498; test: Growth inhibition of human A498 cells assessed as cell growth at 10 uM incubated for 48 hrs by sulforhodamine B assay relative to control; settings: A498, 48 h, read-out: Activity
[18] = system: Hs-578T; test: Growth inhibition of human Hs 578T cells assessed as cell growth at 10 uM incubated for 48 hrs by sulforhodamine B assay relative to control; settings: read-out: Activity
[19] = system: KM12; test: Growth inhibition of human KM12 cells assessed as cell growth at 10 uM incubated for 48 hrs by sulforhodamine B assay relative to control; settings: KM12, 48 h, read-out: Activity
[20] = system: MDA-MB-435; test: Growth inhibition of human MDA-MB-435 cells assessed as cell growth at 10 uM incubated for 48 hrs by sulforhodamine B assay relative to control; settings: MDA-MB-435, 48 h, read-out: Activity
[21] = system: SNB-75; test: Growth inhibition of human SNB75 cells assessed as cell growth at 10 uM incubated for 48 hrs by sulforhodamine B assay relative to control; settings: SNB-75, 48 h, read-out: Activity
[22] = system: UACC-62; test: Growth inhibition of human UACC62 cells assessed as cell growth at 10 uM incubated for 48 hrs by sulforhodamine B assay relative to control; settings: UACC-62, 48 h, read-out: Activity
[23] = system: CAKI-1; test: Growth inhibition of human Caki1 cells assessed as cell growth at 10 uM incubated for 48 hrs by sulforhodamine B assay relative to control; settings: CAKI-1, 48 h, read-out: Activity
[24] = system: OVCAR-4; test: Growth inhibition of human OVCAR4 cells assessed as cell growth at 10 uM incubated for 48 hrs by sulforhodamine B assay relative to control; settings: OVCAR-4, 48 h, read-out: Activity
[25] = system: COLO 205; test: Growth inhibition of human COLO205 cells assessed as cell growth at 10 uM incubated for 48 hrs by sulforhodamine B assay relative to control; settings: COLO 205, 48 h, read-out: Activity
[26] = system: U-251; test: Growth inhibition of human U251 cells assessed as cell growth at 10 uM incubated for 48 hrs by sulforhodamine B assay relative to control; settings: U-251, 48 h, read-out: Activity
[27] = system: TK-10; test: Growth inhibition of human TK10 cells assessed as cell growth at 10 uM incubated for 48 hrs by sulforhodamine B assay relative to control; settings: TK-10, 48 h, read-out: Activity
[28] = system: ACHN; test: Growth inhibition of human ACHN cells assessed as cell growth at 10 uM incubated for 48 hrs by sulforhodamine B assay relative to control; settings: read-out: Activity
[29] = system: NCI-H23; test: Growth inhibition of human NCI-H23 cells assessed as cell growth at 10 uM incubated for 48 hrs by sulforhodamine B assay relative to control; settings: NCI-H23, 48 h, read-out: Activity
[30] = system: SK-OV-3; test: Growth inhibition of human SKOV3 cells assessed as cell growth at 10 uM incubated for 48 hrs by sulforhodamine B assay relative to control; settings: SK-OV-3, 48 h, read-out: Activity
[31] = system: BT-549; test: Growth inhibition of human BT549 cells assessed as cell growth at 10 uM incubated for 48 hrs by sulforhodamine B assay relative to control; settings: BT-549, 48 h, read-out: Activity
[32] = system: OVCAR-8; test: Growth inhibition of human OVCAR8 cells assessed as cell growth at 10 uM incubated for 48 hrs by sulforhodamine B assay relative to control; settings: OVCAR-8, 48 h, read-out: Activity
[33] = system: RPMI-8226; test: Growth inhibition of human RPMI8226 cells assessed as cell growth at 10 uM incubated for 48 hrs by sulforhodamine B assay relative to control; settings: RPMI-8226, 48 h, read-out: Activity

Structure (SMILES)	growth at 10 µM [1]	growth at 10 µM [2]	growth at 10 µM [3]	growth at 10 µM [4]	growth at 10 µM [5]	growth at 10 µM [6]	growth at 10 µM [7]	growth at 10 µM [8]	growth at 10 µM [9]	growth at 10 µM [10]	growth at 10 µM [11]	growth at 10 µM [12]	growth at 10 µM [13]	growth at 10 µM [14]	growth at 10 µM [15]	growth at 10 µM [16]	growth at 10 µM [17]	growth at 10 µM [18]	growth at 10 µM [19]	growth at 10 µM [20]	also measured
CCCCOc1nc2c(C)cccc2cc1C1CNC(=O)c2ccccc2N1 (centres undefined)	60%	66.4%	61.4%	68.3%	42.3%	40.1%	51.3%	20%	86.1%	62.9%	44.8%	43.4%	46.2%	60.8%	65.3%	56.2%	55.3%	69.7%	56.4%	4.51%	growth at 10 µM [21]: 56.6%; growth at 10 µM [22]: 29.1%; growth at 10 µM [23]: 52.1%; growth at 10 µM [24]: 71.7%; growth at 10 µM [25]: 90.8%; growth at 10 µM [26]: 63.7%; growth at 10 µM [27]: 98.7%; growth at 10 µM [28]: 66.3%; growth at 10 µM [29]: 80%; growth at 10 µM [30]: 69.2%; growth at 10 µM [31]: 74.5%; growth at 10 µM [32]: 81.2%; growth at 10 µM [33]: 57.5%
O=C1CC(c2cc3ccccc3[nH]c2=O)Nc2ccccc21 (centres undefined)	95.5%	110%	99.5%	99.4%	104%	104%	108%	113%	106%	98.3%	90.7%	103%	93.9%	98.2%	83.9%	105%	79.4%	99.7%	105%	108%	growth at 10 µM [21]: 90.4%; growth at 10 µM [22]: 96.3%; growth at 10 µM [23]: 95.2%; growth at 10 µM [24]: 109%; growth at 10 µM [25]: 115%; growth at 10 µM [26]: 99.7%; growth at 10 µM [27]: 98%; growth at 10 µM [28]: 99.9%; growth at 10 µM [29]: 97.8%; growth at 10 µM [30]: 99.4%; growth at 10 µM [31]: 94.3%; growth at 10 µM [32]: 108%; growth at 10 µM [33]: 107%
O=C1NCC(c2cc3ccc4ccccc4c3[nH]c2=O)Nc2ccccc21 (centres undefined)	82.4%	104%	95%	99.8%	91.5%	88.8%	99%	107%	96.9%	92.2%	90.4%	99.2%	92.8%	90.6%	65.3%	82.3%	88.6%	93.9%	99.1%	106%	growth at 10 µM [21]: 107%; growth at 10 µM [22]: 95.2%; growth at 10 µM [23]: 85.7%; growth at 10 µM [24]: 106%; growth at 10 µM [25]: 108%; growth at 10 µM [26]: 102%; growth at 10 µM [27]: 107%; growth at 10 µM [28]: 109%; growth at 10 µM [29]: 102%; growth at 10 µM [30]: 99.9%; growth at 10 µM [31]: 93.1%; growth at 10 µM [32]: 78%; growth at 10 µM [33]: 109%
